Data set [1] is described as follows: Solubility assay (kinetic solubility, PBS pH 7). It is filed as physicochemical. The settings on record: pH 7, PBS; for solubility kinetic: pH 7, aqueous buffer, kinetic from dmso stock, read-out: Solubility. An outline of the steps: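 Quantitation uses an external standard at 100 µM, prepared from 10 mM stock in acetonitrile:methanol:DMSO (10:80:10). Solubility (µM) = (peak area of sample ÷ peak area of standard) × standard concentration.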

Another data set deals with HCT116 cells. Put plainly: Lactate dehydrogenase (LDH) release assay. Format: cell-based. An outline of the steps: (§1)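 HCT116 cells stably carrying a p53-responsive β-lactamase reporter, seeded at 8000 cells/well, exposed to compound with 0.5% final DMSO. LDH release read with the CytoTox-ONE membrane integrity kit. Values are geometric means of at least three biological replicates.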

Data set [2] in a line: Lactate dehydrogenase (LDH) release assay. Format: cell-based. The conditions noted are these: LDH: Cytotoxicity assay: EC50. An outline of the steps:
as §1

A short description of data set [3]: Experimental LogD (partition coefficient). The settings on record: for logD: not stated, Partition Coeff LogD.

Converted amounts (≈) assume the structure as drawn. Positions of bridges follow the written chain, without caps; N, C: chain ends. Non-standard residues stand in square brackets, D forms with d. Residues, ends and D or L forms follow the SMILES beside them. R8 = C=CCCCCCC[C@@](C)(N)C(=O)O; Cba = N[C@@H](CC1CCC1)C(=O)O; S5 = C=CCCC[C@](C)(N)C(=O)O

With `CC(=O)N[C@@H](CC(C)C)C(=O)N[C@H](C(=O)N[C@@H](Cc1ccccc1)C(=O)N[C@]1(C)CCCCCCC=CCCC[C@@](C)(C(=O)N[C@@H](CO)C(=O)N[C@@H](C)C(=O)N[C@@H](C)C(N)=O)NC(=O)[C@H](CC2CCC2)NC(=O)[C@H](CC(C)C)NC(=O)[C@H](CCC(N)=O)NC(=O)[C@H](C)NC(=O)[C@H](Cc2ccc(O)cc2)NC(=O)[C@H](CCC(=O)O)NC1=O)[C@@H](C)O` [MP-364] (Ac-LTF[R8]EYAQL[Cba][S5]SAA-NH2; staple 4-11), the EPSA in “physchem” came to 196 A^2. For the same compound, the Solubility result in data set [1] is given as “Poorly Behaved”. The “LDH: Cytotoxicity assay: % Effect” value with HCT116 cells came out at 68.78%. Also, the EC50 (as a rule, the concentration giving half of the maximal effect) in data set [2] was found to be 16 µM. The “Partition Coeff LogD” value in data set [3] is “Poorly Behaved”.
In the case of `CC(=O)N[C@H](CC(C)C)C(=O)N[C@H](C(=O)N[C@@H](Cc1ccccc1)C(=O)NC(C)(C)C(=O)N[C@@H](CCC(=O)O)C(=O)N[C@@H](Cc1ccc(O)cc1)C(=O)N[C@@H](Cc1c[nH]c2ccccc12)C(=O)N[C@@H](CCC(N)=O)C(=O)N[C@@H](CC(C)C)C(=O)N[C@@H](CC1CCC1)C(=O)NC(C)(C)C(=O)N[C@@H](CO)C(=O)N[C@@H](C)C(=O)N[C@@H](C)C(N)=O)[C@@H](C)O` [MP-787], the EPSA in “physchem” is 190 A^2. Also, the solubility kinetic in data set [1] was 24 µM (≈ 40 µg/mL). Further, in the data set on HCT116 cells, the “LDH: Cytotoxicity assay: % Effect” value came to 4.125%. In addition, the EC50 in data set [2] was above 50.6 µM. For the same compound, the pH-dependent lipophilicity (logD) (in general, lipophilicity at a set pH, counting ionised and neutral species) in data set [3] stood at 2.16.
`CC(=O)N[C@@H](CC(C)C)C(=O)N[C@H](C(=O)N[C@@H](Cc1ccccc1)C(=O)NC(C)(C)C(=O)N[C@@H](CCC(=O)O)C(=O)N[C@@H](Cc1ccc(O)cc1)C(=O)N[C@@H](Cc1c[nH]c2ccccc12)C(=O)N[C@@H](CCC(N)=O)C(=O)N[C@H](CC(C)C)C(=O)N[C@@H](CC1CCC1)C(=O)NC(C)(C)C(=O)N[C@@H](CO)C(=O)N[C@@H](C)C(=O)N[C@@H](C)C(N)=O)[C@@H](C)O` [MP-788]: in “physchem”, the EPSA came out at 196 A^2. Also, in data set [1], the solubility kinetic is 83.5 µM (≈ 139 µg/mL). Besides, in the data set with HCT116 cells, the “LDH: Cytotoxicity assay: % Effect” value came out at 8.3%. The compound further yielded an EC50 in data set [2] above 50.6 µM. The pH-dependent lipophilicity (logD) in data set [3] turned out to be 2.06.
Take `CC(=O)N[C@@H](CC(C)C)C(=O)N[C@H](C(=O)N[C@@H](Cc1ccccc1)C(=O)NC(C)(C)C(=O)N[C@H](CCC(=O)O)C(=O)N[C@@H](Cc1ccc(O)cc1)C(=O)N[C@@H](Cc1c[nH]c2ccccc12)C(=O)N[C@@H](CCC(N)=O)C(=O)N[C@@H](CC(C)C)C(=O)N[C@@H](CC1CCC1)C(=O)NC(C)(C)C(=O)N[C@@H](CO)C(=O)N[C@@H](C)C(=O)N[C@@H](C)C(N)=O)[C@@H](C)O` [MP-789]: the EPSA in “physchem” came out at 196 A^2. For the same compound, the solubility kinetic in data set [1] stood at 28 µM (≈ 46.6 µg/mL). For the same compound, in the data set on HCT116 cells, the “LDH: Cytotoxicity assay: % Effect” value is listed as 5.465%. In data set [2], the EC50 was above 50.6 µM. Moreover, in data set [3], the pH-dependent lipophilicity (logD) turned out to be 2.12.
With `CC(=O)N(C)CC(=O)N(C)CC(=O)N(C)CC(=O)N(C)CC(=O)N[C@@H](CC(C)C)C(=O)N[C@H](C(=O)N[C@@H](Cc1ccccc1)C(=O)N[C@]1(C)CCCCCCC=CCCC[C@@](C)(C(=O)N[C@@H](CO)C(=O)N[C@@H](C)C(=O)N[C@@H](C)C(N)=O)NC(=O)[C@H](CC2CCC2)NC(=O)[C@H](CCC(N)=O)NC(=O)[C@H](C)NC(=O)[C@H](Cc2c[nH]c3ccccc23)NC(=O)[C@H](Cc2ccc(O)cc2)NC(=O)[C@H](CCC(=O)O)NC1=O)[C@@H](C)O` [MP-361], the EPSA in “physchem” is 212 A^2. Besides, in data set [1], the solubility kinetic came out at 70.7 µM (≈ 143 µg/mL). The “LDH: Cytotoxicity assay: % Effect” value in the data set with HCT116 cells stood at 2.48%. In data set [2], this compound returned a 50% effective concentration (EC50) above 50.6 µM. Moreover, the logD in data set [3] worked out at 2.52.
In turn, `CC(=O)N[C@@H](CC(C)C)C(=O)N[C@H](C(=O)N[C@@H](Cc1ccccc1)C(=O)N[C@]1(C)CCCCCCC=CCCC[C@@](C)(C(=O)N[C@@H](CO)C(=O)N[C@@H](C)C(=O)N[C@@H](C)C(N)=O)NC(=O)[C@H](CC2CCC2)NC(=O)[C@H](CC(C)C)NC(=O)[C@H](CCC(N)=O)NC(=O)[C@@H](Cc2c[nH]c3ccccc23)NC(=O)[C@H](Cc2ccc(O)cc2)NC(=O)[C@H](CCC(=O)O)NC1=O)[C@@H](C)O` [MP-594] gave an EPSA in “physchem” of 203 A^2. The solubility kinetic in data set [1] is 11 µM (≈ 19.7 µg/mL). Further, in the data set with HCT116 cells, the “LDH: Cytotoxicity assay: % Effect” value came to 35.22%. Also, in data set [2], the EC50 was determined as 14.8 µM. In data set [3], this compound showed a pH-dependent lipophilicity (logD) of 2.83.
